{"source": "patent US20210169993A1", "about": "“TREATMENT OF A SUBTYPE OF ASD” (STALICLA SA, priority 2017, published 2021)"}
{"tested_on": "ASD phenotype 1 lymphoblastoid cell lines", "test": "NADH production in Phenotype Mammalian MicroArrays (PM-M, Biolog), ASD phenotype 1 cells", "format": "cell-based, human", "conditions": "FIG. 1 (AUC) and Table 1 (endpoint absorbance)", "experimental": "From all subjects, blood samples were collected and lymphoblastoid cell lines generated. Briefly, tubes containing anticoagulant citrate dextrose (ACD) were used to collect blood samples via venipuncture, in order to ensure that the blood cells remained metabolically active. The tubes were kept at room temperature and processed within 24 hours.\nCell lines were obtained by immortalization of lymphocytes from blood samples using Epstein-Barr virus.\nEnergy production of cells was measured using commercially available Phenotype Mammalian MicroArrays (PM-Ms, Biolog, Hayward, Calif., USA).\nThe compound in each well was designed to be used by the cells, either as the sole energy source or as the metabolic effector influencing the utilization of an energy source (α-D-glucose) added in the cell suspension. […] Before plating, cell viability and number were assessed utilizing a BioRad cell counter and a trypan blue dye. The concentration of live cells required for plating was 4×10^5 cells/mL, corresponding to 20,000 cells per well in a volume of 50 μL. […] Cells were incubated for 48 h at 37° C. in 5% CO2, using the modified Biolog IF-M1 medium.\nThe Biolog IF-M1 medium was modified for plates PM-M1 to M4 by adding the following to 100 mL of Biolog IF-M1: 1.1 mL of 100× penicillin/streptomycin solution, 0.16 mL of 200 mM glutamine (final concentration 0.3 mM), and 5.3 mL of Fetal Bovine Serum (FBS, final concentration 5%). For plates PM-M5 to M8, 5.5 mM α-D-glucose will be added in place of FBS.\nDuring the 48-hour incubation, the only energy source the cells had was the chemical in the well. After this first incubation, Biolog Redox Dye Mix MB was added (10 μL/well) and the plates were incubated under the same conditions for an additional 24 hours. As the cells metabolized the energy source, tetrazolium dye in the media was reduced, producing a purple color according to the amount of NADH generated.\nFor the last 24 hours of the experiment, the plates were incubated in the Omnilog system, which collects optical density readings every 15 minutes, generating 96 data-points for each well. The system also elaborated the kinetic curve for the metabolic reaction in each well and extrapolated parameters such as slope, highest point, endpoint, area under the curve (AUC), and lag.\nAt the end of the 24-hour incubation, the plates were analyzed utilizing a microplate reader with readings at 590 and 750 nm. The first value (A590) indicated the highest absorbance peak of the redox dye and the second value (A750) gave a measure of the background noise. The relative absorbance (A590-750) was calculated per well."}
{"substance": "FGF-1(aFGF): growth factor that selectively targets PI3K-Akt-mTOR by binding the receptor tyrosine kinase", "production of NADH in ASD phenotype 1 cells compared to TDs and non-phenotype 1 cells": "significantly reduced"}
{"substance": "IGF-I: insulin-like growth factor 1", "production of NADH in ASD phenotype 1 cells compared to TDs and non-phenotype 1 cells": "no significant differences"}
{"substance": "IL-1beta: Th1 cytokine", "production of NADH in ASD phenotype 1 cells compared to TDs and non-phenotype 1 cells": "significantly lower"}
{"substance": "IL-6: Th1 cytokine", "production of NADH in ASD phenotype 1 cells compared to TDs and non-phenotype 1 cells": "significantly lower"}
{"substance": "PDGF-AB: platelet-derived growth factor AB", "production of NADH in ASD phenotype 1 cells compared to TDs and non-phenotype 1 cells": "no significant differences"}
{"substance": "hGH (Somatotropin): growth factor that selectively targets PI3K-Akt-mTOR by binding the receptor tyrosine kinase", "production of NADH in ASD phenotype 1 cells compared to TDs and non-phenotype 1 cells": "significantly reduced"}
